According to patent US11028085B2, “Substituted isoindolin-1-ones and 2,3-dihydro-1h-pyrrolo[3,4-c]pyridin-1-ones as hpk1 antagonists” (Nimbus Saturn, Inc., priority 2019, dated 2021):
pIC50: −log10 of the molar value.

Molecular target: HPK1 (Homo sapiens (Human), UniProt Q92918)
Assay: HPK1 biochemical enzyme assay (microfluidic mobility shift assay)
Conditions: 1.5 nM HPK1, ATP 1 mM final, 60 min at RT, Caliper EZ Reader; read-out: HPK1 1000UMATP caliper IC50
Experimental: HPK1 biochemical enzyme assay: HPK1 enzyme inhibition was measured using a microfluidic mobility shift assay. […] Test compounds were titrated in ten point curves (top final assay concentration […]), and preincubated with enzyme/substrate mix for 30 min prior to initiation of the reaction by addition of ATP (1 mM final concentration) and substrate (1 μM final concentration; Carna Biosciences) diluted in assay buffer supplemented by MgCl2 (final assay concentration of 5 mM). Following 60 min incubation at RT, the reaction was terminated by addition of 60 µl/well termination buffer (Carna Biosciences) and signal determination using a Caliper EZ Reader (Perkin Elmer, UK). […] The compound numbers correspond to the compound numbers in Table 1.

Sequence of HPK1 (Q92918 whole entry): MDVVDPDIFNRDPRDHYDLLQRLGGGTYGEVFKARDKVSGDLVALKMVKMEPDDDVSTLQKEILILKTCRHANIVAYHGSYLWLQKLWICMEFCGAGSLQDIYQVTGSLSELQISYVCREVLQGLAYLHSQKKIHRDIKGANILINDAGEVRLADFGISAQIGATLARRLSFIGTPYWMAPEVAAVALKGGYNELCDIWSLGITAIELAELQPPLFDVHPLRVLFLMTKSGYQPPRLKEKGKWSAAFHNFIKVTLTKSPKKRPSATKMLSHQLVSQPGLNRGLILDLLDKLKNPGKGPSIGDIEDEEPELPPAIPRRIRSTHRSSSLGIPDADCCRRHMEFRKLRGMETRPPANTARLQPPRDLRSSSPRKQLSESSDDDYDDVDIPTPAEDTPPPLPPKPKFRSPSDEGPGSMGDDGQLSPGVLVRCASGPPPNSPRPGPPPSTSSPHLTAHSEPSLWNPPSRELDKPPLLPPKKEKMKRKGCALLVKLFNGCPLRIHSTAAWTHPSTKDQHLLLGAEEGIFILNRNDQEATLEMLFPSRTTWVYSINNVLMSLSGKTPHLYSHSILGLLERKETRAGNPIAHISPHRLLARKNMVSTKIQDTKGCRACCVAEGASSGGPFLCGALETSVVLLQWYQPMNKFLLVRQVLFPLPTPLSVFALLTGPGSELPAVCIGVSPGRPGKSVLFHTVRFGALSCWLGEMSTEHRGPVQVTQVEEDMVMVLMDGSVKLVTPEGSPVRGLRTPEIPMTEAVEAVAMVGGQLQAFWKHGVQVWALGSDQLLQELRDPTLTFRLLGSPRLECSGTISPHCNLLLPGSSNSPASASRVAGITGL

Row | Compound | pIC50
1 | 7-((5-(4-hydroxypiperidin-1-yl)pyridin-2-yl)amino)-4-(imidazo[1,2-a]pyrazin-5-yl)-2,3-dihydro-1H-pyrrolo[3,4-c]pyridin-1-one [I-376] | 6.00 to 7.00
2 | 7-((5-((3R,4R)-4-fluoro-3-hydroxypiperidin-1-yl)pyridin-2-yl)amino)-4-(imidazo[1,2-a]pyrazin-3-yl)isoindolin-1-one [I-434] | > 7.00
3 | CN(C)Cc1nc(Nc2cnc(-c3cccc4c3ccn4C)c3c2C(=O)NC3)ccc1[C@@H]1CCOC1 (single isomer, unassigned) [I-540] | > 7.00
4 | CC1NC(=O)c2c(Nc3ccc(N4CCC(O)CC4)cn3)ccc(-c3ccnc4c3ccn4C)c21 (stereo in doubt) [I-286, (S)-7-((5-(4-hydroxypiperidin-1-yl)pyridin-2-yl)amino)-3-methyl-4-(1-methyl-1H-pyrrolo[2,3-b]pyridin-4-yl)isoindolin-1-one] | < 6.00
5 | CC1NC(=O)c2c(Nc3ccc(N4CCC(O)CC4)cn3)ccc(-c3ccnc4c3ccn4C)c21 (stereo in doubt) [I-287, (R)-7-((5-(4-hydroxypiperidin-1-yl)pyridin-2-yl)amino)-3-methyl-4-(1-methyl-1H-pyrrolo[2,3-b]pyridin-4-yl)isoindolin-1-one] | > 7.00
6 | Cc1ccn2c(-c3ccc(Nc4ccc([C@H]5CCOC5)c(CN(C)C)n4)c4c3CNC4=O)cnc2n1 (stereo in doubt) [I-561, 7-[[6-[(dimethylamino)-methyl]-5-tetralndrofliran-3-yl-2-pyridyl]amino] 4-(7-methylimidazo [1,2-a]pyrimidin-3-yl)isoindolin-1-one] | > 7.00
7 | Cc1cccn2c(-c3ccc(Nc4ccc(C5CCOC5)c(CN(C)C)n4)c4c3CNC4=O)cnc12 (stereo in doubt) [I-695, (S)-7-((6-((dimethylamino)-methyl)-5-(tetrahydrofuran-3-yl)pyridin-2-yl)amino)-4-(8-methylimidazo [1,2-a]pyridin-3-yl)isoindolin-1-one] | > 7.00
8 | Cc1cccn2c(-c3ccc(Nc4ccc(C5CCOC5)c(CN(C)C)n4)c4c3CNC4=O)cnc12 (stereo in doubt) [I-696, (R)-7-((6-((dimethylamino)-methyl)-5-(tetrahydrofuran-3-yl)pyridin-2-yl)amino)-4-(8-methylimidazo [1,2-a]pyridin-3-yl)isoindolin-1-one] | > 7.00
9 | COCC1CN(c2ccc(Nc3ccc(-c4cnc5cc(F)ccn45)c4c3C(=O)NC4)nc2CN(C)C)CCO1 (stereo in doubt) [I-711, (R)-7-((6-((dimethylamino)-methyl)-5-(2-(methoxymeth-yl)morpholino)pyridin-2-yl)amino)-4-(7-fluoroimidazo [1,2-a]pyridin-3-yl)isoindolin-1-one] | > 7.00
10 | O=C1NCc2c(-c3cnc4ccccn34)ccc(Nc3ccc(N4CCC(O)CC4)cn3)c21 [I-125, 7-[[5-(4-hydroxy-1-piperidyl)-2-pyridyl]amino]-4-imidazo[1,2-a]pyridin-3-yl-isoindolin-1-one] | > 7.00
11 | O=C1NCc2c(-c3cnc4cc(F)ccn34)ccc(Nc3ccc(N4CCC(O)CC4)cn3)c21 [I-138] | > 7.00
12 | O=C1NCc2c(-c3cnc4cc(CO)ccn34)ccc(Nc3ccc(N4CCC(O)CC4)cn3)c21 [I-177, 4-[7-(hydroxymeth-yl)imidazo[1,2-a]pyridin-3-yl]-7-[[5-(4-hydroxy-1-piperidyl)-2-pyripyl]amino] isoindolin-1-one] | > 7.00
13 | Cc1cnc2c(-c3ccc(Nc4ccc(N5CCC(O)CC5)cn4)c4c3CNC4=O)cnn2c1 [I-186, 7-[[5-(4-hydroxy-1-piperidyl)-2-pyridyl)amino]-4-(6-methylpyra-zolo[1,5-a]pyrimidin-3-yl)isoindolin-1-one] | > 7.00
14 | O=C1NCc2c(-c3cnc4ccccn34)ncc(Nc3ccc(N4CCOCC4)cn3)c21 [I-198, 4-imidazo[1,2-a]pyridin-3-yl-7-[(5-morpholino-2-pyridyl)-amino]-2,3-dihydropyrrolo [3,4-c]pyridin-1-one] | 6.00 to 7.00
